Laboratory results as given in patent publication US4065456A, “Glycerol derivatives of quinoline carbostyryl and isocarbo styryl” (Otsuka Pharmaceutical Co., Ltd., priority 1973, dated 1977).

Columns and labels:
[1] = test system: ADP-Induced Aggregation In Rabbit Platelets; assay: Inhibition of ADP-induced aggregation in rabbit platelets (aggregometer, PRP); assay type: cell-based; conditions: Oryctolagus cuniculus, Platelet, ADP 7.5 × 10^-5 M, PRP 300,000 platelets/mm^3; for inhibition at 100 µM: concentration 10^-4 M; for inhibition at 1 µM: concentration 10^-6 M; for inhibition at 0.01 µM: concentration 10^-8 M; for inhibition at 10 µM: concentration 10^-5 M
Method: (§1) The inhibitory activity of some compounds of this invention and the method for determination of the activity are described hereinafter in greater detail.
(§2) The aggregation inhibitory activity was determined using an AG-II type aggregometer (made by Bryston Manufacturing Co.). A blood sample was withdrawn from rabbits as a mixture of sodium citrate and whole blood in a proportion of 1:9 by volume and centrifuged at 1000 rpm for 10 minutes to obtain a platelet rich plasma (PRP). The resulting PRP was separated, and the remaining blood sample was further centrifuged at 3000 rpm for 15 minutes to obtain a platelet poor plasma (PPP).
(§3) The number of platelets in the PRP was counted in accordance with the Brecher-Clonkite Method, and the PRP was diluted with the PPP to prepare a PRP sample containing platelets in an amount of 300,000/mm^3 for an adenosine diphosphate (ADP)-induced aggregation test and a PRP sample containing platelets in an amount of 450,000/mm^3 for a collagen-induced aggregation test.
(§4) 0.01 ml of a solution of a test compound having a predetermined concentration (as shown in the Tables below) was then added to 0.6 ml of the PRP sample obtained above and the mixture was incubated at a temperature of 37° C for 1 minute. Then 0.07 ml of an ADP or collagen solution was added to the mixture. The mixture was then subjected to a transmittance determination and changes in the transmittance of the mixture were recorded using aggregometer at a stirrer rotation rate of 1100 rpm. In this test, Owren Veronal buffer (pH 7.35) was used for the preparation of solutions of ADP, collgen and the test compounds. ADP was adjusted to a concentration of 7.5 × 10^-5 M, and the collagen solution was prepared by triturating 100 mg of collagen with 5 ml of the above buffer and the supernatant obtained was used as a collagen inducer. Adenosine and acetylsalicylic acid were used as controls for the ADP-induced aggregation test and the collagen-induced aggregation test, respectively. The aggregation inhibitory activity was determined in terms of the percent inhibition (%) with respect to the aggregation ratio of controls. The aggregation ratio can be calculated by the following equation: [formula] Wherein:
(§5) "a" is the optical density of the PRP,
(§6) "b" is the optical density of the PRP having incorporated therein a test compound and an aggregation inducer, and
(§7) "c" is the optical density of the PPP.

[2] = test system: Collagen-Induced Aggregation In Rabbit Platelets; assay: Inhibition of collagen-induced aggregation in rabbit platelets (aggregometer, PRP); assay type: cell-based; conditions: Oryctolagus cuniculus, Platelet, PRP 450,000 platelets/mm^3; for inhibition at 100 µM: concentration 10^-4 M; for inhibition at 10 µM: concentration 10^-5 M; for inhibition at 1 µM: concentration 10^-6 M; for inhibition at 0.01 µM: concentration 10^-8 M
Method: as §1, §2, §3, §4, §5, §6, §7

OCC(O)COc1cccc2c(O)nccc12 (centres unmarked)
inhibition at 100 µM ([1]; table 3): 2% | inhibition at 1 µM ([1]; table 3): 6% | inhibition at 0.01 µM ([1]; table 3): 0%

CC(=O)Oc1ccccc1C(=O)O [Acetylsalicylic Acid, reference compound]
inhibition at 100 µM ([2]; table 5): 100% | inhibition at 10 µM ([2]; table 5): 12% | inhibition at 1 µM ([2]; table 5): 8%

Nc1ncnc2c1ncn2[C@@H]1O[C@H](CO)[C@@H](O)[C@H]1O [Adenosine, reference compound]
inhibition at 100 µM ([1]; table 3): 70% | inhibition at 1 µM ([1]; table 3): 47% | inhibition at 0.01 µM ([1]; table 3): 5% | inhibition at 100 µM ([1]; table 4): 92% | inhibition at 10 µM ([1]; table 4): 74% | inhibition at 1 µM ([1]; table 4): 63% | inhibition at 0.01 µM ([1]; table 4): 15%

O=C1CCc2c(cccc2OCC(O)CO)N1 (centres unmarked) [drawing 32]
inhibition at 100 µM ([2]; table 2): 100% | inhibition at 1 µM ([2]; table 2): 11% | inhibition at 0.01 µM ([2]; table 2): 8%

CN1C(=O)CCc2c(OCC(O)CO)cccc21 (centres unmarked) [drawing 33]
inhibition at 100 µM ([2]; table 2): 7% | inhibition at 1 µM ([2]; table 2): 13% | inhibition at 0.01 µM ([2]; table 2): 0%

C=CCN1C(=O)CCc2c(OCC(O)CO)cccc21 (centres unmarked) [drawing 34]
inhibition at 100 µM ([2]; table 2): 0% | inhibition at 1 µM ([2]; table 2): 0% | inhibition at 0.01 µM ([2]; table 2): 0%

O=C1CCc2cc(OCC(O)CO)ccc2N1 (centres unmarked) [drawing 35]
inhibition at 100 µM ([2]; table 2): 100% | inhibition at 1 µM ([2]; table 2): 9% | inhibition at 0.01 µM ([2]; table 2): 26%

O=C1CCc2ccc(OCC(O)CO)cc2N1 (centres unmarked) [drawing 36]
inhibition at 100 µM ([2]; table 2): 13% | inhibition at 1 µM ([2]; table 2): 18% | inhibition at 0.01 µM ([2]; table 2): 4%

O=C1CCc2cccc(OCC(O)CO)c2N1 (centres unmarked) [drawing 37]
inhibition at 100 µM ([2]; table 2): 25% | inhibition at 1 µM ([2]; table 2): 7% | inhibition at 0.01 µM ([2]; table 2): 21%

O=C1CCc2c(cccc2OCC(O)CO)N1 (centres unmarked) [drawing 38]
inhibition at 100 µM ([1]; table 3): 21% | inhibition at 1 µM ([1]; table 3): 17% | inhibition at 0.01 µM ([1]; table 3): 21%

CN1C(=O)CCc2c(OCC(O)CO)cccc21 (centres unmarked) [drawing 39]
inhibition at 100 µM ([1]; table 3): 7% | inhibition at 1 µM ([1]; table 3): 13% | inhibition at 0.01 µM ([1]; table 3): 0%

C=CCN1C(=O)CCc2c(OCC(O)CO)cccc21 (centres unmarked) [drawing 40]
inhibition at 100 µM ([1]; table 3): 0% | inhibition at 1 µM ([1]; table 3): 0% | inhibition at 0.01 µM ([1]; table 3): 0%

O=C1CCc2cc(OCC(O)CO)ccc2N1 (centres unmarked) [drawing 41]
inhibition at 100 µM ([1]; table 3): 100% | inhibition at 1 µM ([1]; table 3): 9% | inhibition at 0.01 µM ([1]; table 3): 26%

O=C1CCc2ccc(OCC(O)CO)cc2N1 (centres unmarked) [drawing 42]
inhibition at 100 µM ([1]; table 3): 13% | inhibition at 1 µM ([1]; table 3): 18% | inhibition at 0.01 µM ([1]; table 3): 4%

O=C1CCc2cccc(OCC(O)CO)c2N1 (centres unmarked) [drawing 43]
inhibition at 100 µM ([1]; table 3): 25% | inhibition at 1 µM ([1]; table 3): 7% | inhibition at 0.01 µM ([1]; table 3): 21%

O=C1CCc2c(cccc2OC[C@H](O)CO)N1 [drawing 46]
inhibition at 100 µM ([1]; table 4): 49% | inhibition at 10 µM ([1]; table 4): 16% | inhibition at 1 µM ([1]; table 4): 8% | inhibition at 0.01 µM ([1]; table 4): 0%

O=C1CCc2c(cccc2OCC(O)CO)N1 (centres unmarked) [drawing 47]
inhibition at 100 µM ([1]; table 4): 51% | inhibition at 10 µM ([1]; table 4): 18% | inhibition at 1 µM ([1]; table 4): 18% | inhibition at 0.01 µM ([1]; table 4): 15%

O=C1CCc2c(cccc2OC[C@H](O)CO)N1 [drawing 48]
inhibition at 100 µM ([2]; table 5): 95% | inhibition at 10 µM ([2]; table 5): 3% | inhibition at 1 µM ([2]; table 5): 3% | inhibition at 0.01 µM ([2]; table 5): 0%

O=C1CCc2c(cccc2OCC(O)CO)N1 (centres unmarked) [drawing 49]
inhibition at 100 µM ([2]; table 5): 95% | inhibition at 10 µM ([2]; table 5): 17% | inhibition at 1 µM ([2]; table 5): 7% | inhibition at 0.01 µM ([2]; table 5): 3%
